Laboratory results from patent US8946203B2, “Benzodioxane inhibitors of leukotriene production” (Boehringer Ingelheim International GmbH, priority 2012, dated 2015).
pIC50: −log10 of the molar value.

Target: T1, human LTA4 hydrolase (Homo sapiens, UniProt P09960)
T1 sequence (P09960 1-611): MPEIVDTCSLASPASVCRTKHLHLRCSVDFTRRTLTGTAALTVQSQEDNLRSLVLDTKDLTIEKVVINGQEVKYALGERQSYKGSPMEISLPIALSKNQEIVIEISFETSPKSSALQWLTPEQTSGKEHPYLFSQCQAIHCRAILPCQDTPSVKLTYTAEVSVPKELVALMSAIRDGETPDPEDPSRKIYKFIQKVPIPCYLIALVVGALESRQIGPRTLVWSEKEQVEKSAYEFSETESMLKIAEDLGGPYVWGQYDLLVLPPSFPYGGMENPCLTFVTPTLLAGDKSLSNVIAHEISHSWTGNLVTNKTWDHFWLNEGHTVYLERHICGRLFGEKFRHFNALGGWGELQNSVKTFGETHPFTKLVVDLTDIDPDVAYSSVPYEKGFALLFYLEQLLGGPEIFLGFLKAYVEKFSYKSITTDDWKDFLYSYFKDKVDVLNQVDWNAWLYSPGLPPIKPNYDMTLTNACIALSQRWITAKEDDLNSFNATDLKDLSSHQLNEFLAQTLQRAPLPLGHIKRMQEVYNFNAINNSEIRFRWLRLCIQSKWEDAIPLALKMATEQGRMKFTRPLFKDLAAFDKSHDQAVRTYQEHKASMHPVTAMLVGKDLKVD
Assay: LTA4H Enzyme assay (cleavage of Arg-AMC, fluorescence)
Type: biochemical
Settings: not given
Procedure: The compounds of the invention are assessed for the ability to interact with human LTA4 hydrolase in an enzymatic assay that measures the ability of the enzyme to cleave the peptide bond of arginyl-aminomethylcoumarin (Arg-AMC). LTA4H Enzyme (1 nM final), Arg-AMC substrate (50 μM final), and compound are combined in a reaction buffer (50 mM Tris-HCl (pH 7.5), 100 mM KCl, 0.5% bovine serum albumin) at room temperature for 1 h. The formation of product is assessed by measuring the fluorescence of aminomethylcoumarin product (excitation wavelength 380 nm/emission wavelength 460 nm).

`COC1CCN(Cc2ccc([C@H]3COc4ccccc4O3)cc2)CC1` [Example 98, 1-{4-[(2S)-2,3-dihydro-1,4-benzodioxin-2-yl]benzyl}-4-methoxypiperidine] showed a pIC50 of 9.21.

Same assay, conditions: LTA4H Enzyme 1 nM, Arg-AMC substrate 50 μM, room temperature 1 h, fluorescence; read-out: IC50 values of LTA4H Enzyme assay

`NC(=O)C1CCCN(Cc2ccc([C@H]3COc4cccnc4O3)cc2)C1` (stereo partly drawn) [Example 136, 1-{4-[(3S)-2,3-dihydro[1,4]dioxin[2,3-b]pyridin-3-yl]benzyl}piperidine-3-carboxamide] and `NC(=O)C1CCN(Cc2ccc([C@H]3COc4cccnc4O3)cc2)CC1` [Example 206, 1-{4-[(3S)-2,3-dihydro[1,4]dioxino[2,3-b]pyridin-3-yl]benzyl}piperidine-4-carboxamide] are the same in pIC50: 9.72 for the first, 9.72 for the second.

`NC(=O)[C@H]1CC[C@H](NCc2ccc([C@H]3COc4ccccc4O3)cc2)CC1` [Example 66, trans-4-({4-[(2S)-2,3-dihydro-1,4-benzodioxin-2-yl]benzyl}amino)cyclohexane-carboxamide] and `OC[C@@H]1CCCC[C@H]1NCc1ccc([C@H]2COc3ccccc3O2)cc1` [Example 89, [(1R,2R)-2-({4-[(2S)-2,3-dihydro-1,4-benzodioxin-2-yl]benzyl}amino)cyclohexyl]methanol] are within 0.2 log units of each other in pIC50: 8.75 for the first, 8.85 for the second.

Going from `CS(=O)(=O)C1CCN(Cc2ccc(C3COc4ccccc4O3)cc2)CC1` (racemic) [Example 39, 1-[4-(2,3-dihydro-1,4-benzodioxin-2-yl)benzyl]-4-(methylsulfonyl)piperidine] to `CS(=O)(=O)NC1CCN(Cc2ccc([C@H]3COc4ccccc4O3)cc2)CC1` [Example 176, N-(1-{4-[(2S)-2,3-dihydro-1,4-benzodioxin-2-yl]benzyl}piperidin-4-yl)methanesulfonamide], the pIC50 rises from 8.67 to 9.62 (0.95 log units).

Going from `O=C1NCCC12CCN(Cc1ccc([C@H]3COc4ccccc4O3)cc1)CC2` (single isomer, unassigned) [Example 194] to `O=C(O)C1(F)CCN(Cc2ccc([C@H]3COc4ccccc4O3)cc2)CC1` [Example 213, 1-{4-[(2S)-2,3-dihydro-1,4-benzodioxin-2-yl]benzyl}-4-fluoropiperidine-4-carboxylic acid], the pIC50 falls from 9.82 to 9.09 (0.73 log units). The first is the more potent here.

First: O=S1(=O)CCCN1C1CCN(Cc2ccc([C@H]3COc4ccccc4O3)cc2)CC1 [Example 224, 1-[(S)-4-(2,3-Dihydro-benzo[1,4]dioxin-2-yl)-benzyl]-4-(1,1-dioxo-1λ^6-isothiazolidin-2-yl)-piperidine]
Second: OC1CCN(Cc2ccc([C@H]3COc4ccccc4O3)cc2)CC1 (single isomer, unassigned) [Example 192]
The pIC50 of the first is 0.52 log units higher: 9.89 for the first, 9.37 for the second.

`c1ccc2c(c1)OC[C@H](c1ccc(CN3CCC[C@H]4CCCC[C@@H]43)cc1)O2` [Example 85, (4aR,8aS)-1-{4-[(2S)-2,3-dihydro-1,4-benzodioxin-2-yl]benzyl}decahydroquinoline] and `c1ccc2c(c1)OC[C@H](c1ccc(CN(CC3CC3)C3CCCCC3)cc1)O2` [Example 95, N-(cyclopropylmethyl)-N-{4-[(2S)-2,3-dihydro-1,4-benzodioxin-2-yl]benzyl}cyclohexanamine] are within 0.2 log units of each other in pIC50: 9.35 for the first, 9.31 for the second.

Going from `CN(CC(=O)O)Cc1ccc([C@H]2COc3ccccc3O2)cc1` [Example 60, N-{4-[(2S)-2,3-dihydro-1,4-benzodioxin-2-yl]benzyl}-N-methylglycine] to `CN(C)C(=O)C1CCN(Cc2ccc(C3COc4ccccc4O3)cc2)CC1` (racemic) [Example 51, 1-[4-(2,3-dihydro-1,4-benzodioxin-2-yl)benzyl]-N,N-dimethylpiperidine-4-carboxamide], the pIC50 rises from 7.51 to 9.09 (1.58 log units).

Compared with `O=C1CCCN1Cc1ccc(C2COc3cccnc3O2)cc1` (stereo not drawn) [Example 208, 11-[4-(2,3-dihydro-[1,4]dioxino[2,3-b]pyridin-3-yl)-benzyl]-pyrrolidin-2-one], `O=C1CCCN1CC1CCCN(Cc2ccc([C@H]3COc4cccnc4O3)cc2)C1` (stereo partly drawn) [Example 163, 1-[(1-{4-[(3S)-2,3-dihydro[1,4]dioxino[2,3-b]pyridin-3-yl]benzyl}piperidin-3-yl)methyl]pyrrolidin-2-one] is 2.10 log units higher in pIC50: 7.67 for the first, 9.77 for the second.

`O=C(O)c1ccc(C2CCN(Cc3ccc([C@H]4COc5ccccc5O4)cc3)CC2)cc1` [Example 233, 4-(1-{4-[(2S)-2,3-dihydro-1,4-benzodioxin-2-yl]benzyl}piperidin-4-yl)benzoic acid] and `O=C(O)c1ccc(CC2CCN(Cc3ccc([C@H]4COc5ccccc5O4)cc3)CC2)cc1` [Example 231, 4-{1-[(S)-4-(2,3-Dihydro-benzo[1,4]dioxin-2-yl)-benzyl]-piperidin-4-ylmethyl}-benzoic acid] are within 0.2 log units of each other in pIC50: 9.66 for the first, 9.54 for the second.

Compared with `O=C(CO)NC1CCN(Cc2ccc([C@H]3COc4ccccc4O3)cc2)CC1` [Example 218, N-{1-[(S)-4-(2,3-Dihydro-benzo[1,4]dioxin-2-yl)-benzyl]-piperidin-4-yl}-2-hydroxy-acetamide], `OCC1CCN(Cc2ccc([C@H]3COc4ccccc4O3)cc2)CC1` [Example 90, (1-{4-[(2S)-2,3-dihydro-1,4-benzodioxin-2-yl]benzyl}piperidin-4-yl)methanol] is 0.32 log units lower in pIC50: 9.43 for the first, 9.11 for the second.

First: Oc1ccc(CNCc2ccc([C@H]3COc4ccccc4O3)cc2)cc1 [Example 111, 4-[({4-[(2S)-2,3-dihydro-1,4-benzodioxin-2-yl]benzyl}amino)methyl]phenol]
Second: Cn1cnc(CNCc2ccc(C3COc4ccccc4O3)cc2)c1 (racemic) [Example 55, 1-[4-(2,3-dihydro-1,4-benzodioxin-2-yl)phenyl]-N-[(1-methyl-1H-imidazol-4-yl)methyl]methanamine]
The pIC50 of the first is 0.21 log units higher: 8.65 for the first, 8.44 for the second.

Going from `O[C@@H]1CCN(Cc2ccc(C3COc4ccccc4O3)cc2)C1` (mixture of isomers) [Example 34, (3R)-1-[4-(2,3-dihydro-1,4-benzodioxin-2-yl)benzyl]pyrrolidin-3-ol] to `O[C@H]1CCN(Cc2ccc([C@H]3COc4ccccc4O3)cc2)C1` [Example 91, (3S)-1-{4-[(2S)-2,3-dihydro-1,4-benzodioxin-2-yl]benzyl}pyrrolidin-3-ol], the pIC50 rises from 8.72 to 9.27 (0.55 log units).

First: O=S1(=O)CCN(Cc2ccc([C@H]3COc4cccnc4O3)cc2)CC1 [Example 161, (3S)-3-{4-[(1,1-dioxidothiomorpholin-4-yl)methyl]phenyl}-2,3-dihydro[1,4]dioxino[2,3-b]pyridine]
Second: O=C1CCN(Cc2ccc([C@H]3COc4cccnc4O3)cc2)CCN1 [Example 132, 1-{4-[(3S)-2,3-dihydro[1,4]dioxino[2,3-b]pyridin-3-yl]benzyl}-1,4-diazepan-5-one]
The pIC50 of the first is 0.35 log units higher: 9.39 for the first, 9.04 for the second. The first is the more potent here.

`O[C@@H]1CCN(Cc2ccc([C@H]3COc4cccnc4O3)cc2)C1` [Example 144, (3R)-1-{4-[(3S)-2,3-dihydro[1,4]dioxino[2,3-b]pyridin-3-yl]benzyl}pyrrolidin-3-ol] and `N#CC1CCN(Cc2ccc([C@H]3COc4cccnc4O3)cc2)CC1` [Example 159, 1-{4-[(3S)-2,3-dihydro[1,4]dioxino[2,3-b]pyridin-3-yl]benzyl}piperidine-4-carbonitrile] are within 0.2 log units of each other in pIC50: 9.85 for the first, 9.80 for the second.

First: CS(=O)(=O)N1CCN(Cc2ccc([C@H]3COc4cccnc4O3)cc2)CC1 [Example 188, (3S)-3-(4-{[4-(methylsulfonyl)piperazin-1-yl]methyl}phenyl)-2,3-dihydro[1,4]dioxino[2,3-b]pyridine]
Second: O=C1CCC2(CCN(Cc3ccc([C@H]4COc5cccnc5O4)cc3)C2)N1 (stereo partly drawn) [Example 127, 7-{4-[(3S)-2,3-dihydro[1,4]dioxino[2,3-b]pyridin-3-yl]benzyl}-1,7-diazaspiro[4.4]nonan-2-one]
The pIC50 of the first is 0.86 log units lower: 9.06 for the first, 9.92 for the second. The second is the more potent here.

First: O=C(O)c1ccc2c(c1)CN(Cc1ccc([C@H]3COc4ccccc4O3)cc1)CC2 [Example 232, 2-{4-[(2S)-2,3-dihydro-1,4-benzodioxin-2-yl]benzyl}-1,2,3,4-tetrahydroisoquinoline-7-carboxylic acid]
Second: COC1CCN(Cc2ccc(C3COc4ccccc4O3)cc2)C1 (racemic) [Example 47, 1-[4-(2,3-dihydro-1,4-benzodioxin-2-yl)benzyl]-3-methoxypyrrolidine]
The pIC50 of the first is 0.20 log units lower: 8.56 for the first, 8.76 for the second.

First: OCCCC1CCN(Cc2ccc(C3COc4ccccc4O3)cc2)CC1 (racemic) [Example 29, 3-{1-[4-(2,3-dihydro-1,4-benzodioxin-2-yl)benzyl]piperidin-4-yl}propan-1-ol]
Second: c1ccc2c(c1)OC[C@H](c1ccc(CN3CCC(c4nnn[nH]4)CC3)cc1)O2 [Example 216, 1-[(S)-4-(2,3-Dihydro-benzo[1,4]dioxin-2-yl)-benzyl]-4-(1H-tetrazol-5-yl)-piperidine]
The pIC50 of the first is 1.20 log units lower: 8.69 for the first, 9.89 for the second.

Work on `CN1CC(NCc2ccc([C@H]3COc4ccccc4O3)cc2)CCC1=O` (stereo partly drawn) [Example 108, 5-({4-[(2S)-2,3-dihydro-1,4-benzodioxin-2-yl]benzyl}amino)-1-methylpiperidin-2-one] yielded a pIC50 of 9.06.
